Data on 30 molecules can be found in patent US8895585B2, “Nicotinamide derivative or salt thereof” (FUJIFILM Corporation, priority 2010, dated 2014).

Counter-ions that a name gives are not always drawn. Like-named read-outs stand apart in the source and are kept apart here.

One assay has as its system THP-1 cells. As to the kind of experiment: TNFα generation assay. The class given is cell-based, human. Summed up:
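THP-1 cells differentiated to macrophage-like cells with 10 ng/ml IFN-γ for 2 days, preincubated with compound 30 min at room temperature, then cultured 7 h on plates coated with human IgG (10 μg/ml). Secreted TNFα measured by ELISA or AlphaLISA.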

Assay [1] deals with T1, glutathione S-transferase (GST)-fused full-length human Syk protein (Homo sapiens, UniProt P43405).
T1 construct: (GST)-fused full-length human Syk protein; GST (glutathione S-transferase); purchased Carna Biosciences
The assay can be described thus: Syk enzyme assay. Type of assay: biochemical. An outline of the steps: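 GST-tagged full-length human Syk (baculovirus) preincubated with compound 15 min at room temperature (pH 7.0, 10 mM MgCl2), then reacted 40 min with 0.4 μM biotinylated peptide substrate and 27 μM ATP (final). Phosphorylation read by HTRF (615/665 nm) after EDTA stop; IC50 reported.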

The mark [2] stands for this setting: Homo sapiens, THP-1, 7 h, IFN-γ-differentiated THP-1 cells on human IgG-coated plate, cultured 7 hours, read-out: TNFα generation inhibitory activity (IC50).
Setting [3] is: read-out: Syk-inhibitory activity (IC50).
Setting [4] is: Syk enzyme assay, Test Example 1, read-out: IC50 of Syk-inhibitory activity.
The mark [5] stands for this setting: Homo sapiens, THP-1, THP-1 cells, Table 22, read-out: IC50 in TNFα generation assay.

On to `NCCNc1nc(Nc2ccc3ncccc3c2)c(C(N)=O)cc1F` [Example 6-26, 6-((2-aminoethyl)amino)-5-fluoro-2-(quinolin-6-ylamino)nicotinamide], for which the IC50 is ≤ 200 nM with THP-1 cells (setting [2]) and ≤ 1000 nM in assay [1] (setting [3]).
As for `Cc1cncc(Nc2nc(N[C@H](C)[C@H](C)N)c(F)cc2C(N)=O)c1` [Example 006-108], the IC50 in the assay on THP-1 cells (THP-1 cells, Table 22, read-out: IC50 in TNFα generation assay) lay within 65 to 130 nM; in assay [1] (setting [4]) it was 10 to 50 nM.
Turning to `NC[C@H](Nc1nc(Nc2ccc3ncccc3c2)c(C(N)=O)cc1F)C1CC1` [Example 006-186, (R)-6-((2-amino-1-cyclopropylethyl)amino)-5-fluoro-2-((quinolin-6-yl)amino)nicotinamide], the IC50 in the assay on THP-1 cells (setting [5]) was < 65 nM; in assay [1] (setting [4]), < 10 nM.
Consider `CCn1ncc2ccc(Nc3nc(N[C@H](C4CC4)[C@H](C)N)c(F)cc3C(N)=O)cc21` [Example 006-581, 6-(((1R,2S)-2-amino-1-cyclopropylpropyl)amino)-2-((1-ethyl-1H-indazol-6-yl)amino)-5-fluoronicotinamide], for which the IC50 was < 65 nM with THP-1 cells (setting [5]) and < 10 nM in assay [1] (setting [4]).
On to `Cc1cccc(Nc2nc(NC[C@H](C)N)c(F)cc2C(N)=O)c1` [Example 006-099], for which the IC50 is < 65 nM in the assay on THP-1 cells (setting [5]) and 10 to 50 nM in assay [1] (setting [4]).
For `CC[C@@H](Nc1nc(Nc2ccc3c(cnn3CCOC)c2)c(C(N)=O)cc1F)[C@H](C)N` [Example 006-313, 6-(((2S,3R)-2-aminopentan-3-yl)amino)-5-fluoro-2-((1-(2-methoxyethyl)-1H-indazol-5-yl)amino)nicotinamide] the same measures were 65 to 130 nM and < 10 nM.
For `NC(=O)c1cc(F)c(N[C@@H]2CCCC[C@@H]2N)nc1Nc1cncc(-c2ccc(N3CCOCC3)cc2)c1` (relative stereo) [Example 004-222, 6-(cis-2-aminocyclohexylamino)-5-fluoro-2-((5-(4-morpholinophenyl)pyridin-3-yl)amino)nicotinamide] the same measures were 130 to 200 nM and < 10 nM.
For `CCC[C@@H](Nc1nc(Nc2ccc(C)nc2)c(C(N)=O)cc1F)[C@H](C)N` [Example 006-302, 6-(((2S,3R)-2-aminohexan-3-yl)amino)-5-fluoro-2-((6-methylpyridin-3-yl)amino)nicotinamide] the same measures were 130 to 200 nM and 10 to 50 nM.
Regarding `CCn1ncc2cc(Nc3nc(N[C@H](COC)[C@H](C)N)c(F)cc3C(N)=O)ccc21` [Example 006-469, 6-(((2S,3S)-3-amino-1-methoxybutan-2-yl)amino)-2-((1-ethyl-1H-indazol-5-yl)amino)-5-fluoronicotinamide], the IC50 in the assay on THP-1 cells (setting [5]) was < 65 nM; in assay [1] (setting [4]), < 10 nM.
For the molecule `NC(=O)c1cc(F)c(N[C@@H]2CCCC[C@@H]2N)nc1Nc1ccnc2c1ccn2CC1CC1` [Example 004-040], the IC50 with THP-1 cells (setting [5]) was 130 to 200 nM; in assay [1] (setting [4]), < 10 nM.
With `CCOCCOCCn1ncc2cc(Nc3nc(N[C@@H]4CCCC[C@@H]4N)c(F)cc3C(N)=O)ccc21` (relative stereo) [Example 004-092, 6-(cis-2-aminocyclohexylamino)-2-((1-(2-(2-ethoxyethoxy)ethyl)-1H-indazol-5-yl)amino)-5-fluoronicotinamide], the IC50 is 65 to 130 nM with THP-1 cells (setting [5]) and < 10 nM in assay [1] (setting [4]).
For `CCCC[C@H](CN)Nc1nc(Nc2ccc3c(cnn3CC)c2)c(C(N)=O)cc1F` [Example 006-323, (R)-6-((1-aminohexan-2-yl)amino)-2-((1-ethyl-1H-indazol-5-yl)amino)-5-fluoronicotinamide], the IC50 in the assay with THP-1 cells (setting [5]) was 65 to 130 nM; in assay [1] (setting [4]), < 10 nM.
Turning to `CCCc1nn(CC)c2ccc(Nc3nc(N[C@@H]4CCCC[C@@H]4N)c(F)cc3C(N)=O)cc12` [Example 006-457, 6-(((1R,2S)-2-aminocyclohexyl)amino)-2-((1-ethyl-3-propyl-1H-indazol-5-yl)amino)-5-fluoronicotinamide], the values for the IC50 (in the assay on THP-1 cells (setting [5]); in assay [1] (setting [4])) were 130 to 200 nM and < 10 nM, respectively.
The corresponding values for `CCC[C@@H](Nc1nc(Nc2cccc3c2cnn3C)c(C(N)=O)cc1F)[C@H](C)N` [Example 006-251, 6-(((2S,3R)-2-aminohexan-3-yl)amino)-5-fluoro-2-((1-methyl-1H-indazol-4-yl)amino)nicotinamide] are < 65 nM and < 10 nM.
Consider `NC(=O)c1cc(F)c(NC2CCCCC2N)nc1Nc1ccc2cnn(CCF)c2c1` (stereo not drawn) [Example 002-201], for which the IC50 with THP-1 cells (setting [5]) was 65 to 130 nM; in assay [1] (setting [4]), < 10 nM.
On to `CCOCCOCCn1cc2cc(Nc3nc(N[C@@H]4CCCC[C@@H]4N)c(F)cc3C(N)=O)ccc2n1` (relative stereo) [Example 004-095, 6-(cis-2-aminocyclohexylamino)-2-((2-(2-(2-ethoxyethoxy)ethyl)-2H-indazol-5-yl)amino)-5-fluoronicotinamide], for which the values for the IC50 (in the assay with THP-1 cells (setting [5]); in assay [1] (setting [4])) were 130 to 200 nM and < 10 nM, respectively.
For the molecule `NC(=O)c1cc(F)c(N[C@@H]2CCCC[C@@H]2N)nc1Nc1cnc(-n2cccn2)c(-n2nccn2)c1` [Example 006-449, 2-((6-(1H-pyrazol-1-yl)-5-(2H-1,2,3-triazol-2-yl)pyridin-3-yl)amino)-6-(((1R,2S)-2-aminocyclohexyl)amino)-5-fluoronicotinamide], the IC50 lay in the range of 130 to 200 nM with THP-1 cells (setting [5]) and 50 to 100 nM in assay [1] (setting [4]).
For `NC(=O)c1cc(F)c(N[C@@H]2CCCC[C@@H]2N)nc1Nc1ccnc(-n2cccn2)c1` (relative stereo) [Example 006-130, 2-((2-(1H-pyrazol-1-yl)pyridin-4-yl)amino)-6-((cis-2-aminocyclohexyl)amino)-5-fluoronicotinamide], the values for the IC50 (with THP-1 cells (setting [5]); in assay [1] (setting [4])) were 65 to 130 nM and 10 to 50 nM, respectively.
On to `CCc1ncc(Nc2nc(N[C@@H]3CCCC[C@@H]3N)c(F)cc2C(N)=O)cc1C` [Example 006-502, 6-(((1R,2S)-2-aminocyclohexyl)amino)-2-((6-ethyl-5-methylpyridin-3-yl)amino)-5-fluoronicotinamide], for which the IC50 in the assay on THP-1 cells (setting [5]) was 65 to 130 nM; in assay [1] (setting [4]), < 10 nM.
In the case of `NC(=O)c1cc(F)c(NC2CCCCC2N)nc1Nc1ccc(-n2cccn2)nc1` (stereo not drawn) [Example 002-160], the IC50 fell in the range of 130 to 200 nM with THP-1 cells (setting [5]) and 10 to 50 nM in assay [1] (setting [4]).
As to `C[C@H](N)[C@@H](CC1CC1)Nc1nc(Nc2ccc3c(c2)c(F)nn3CC(F)F)c(C(N)=O)cc1F` [Example 006-510, 6-(((2R,3S)-3-amino-1-cyclopropylbutan-2-yl)amino)-2-((1-(2,2-difluoroethyl)-3-fluoro-1H-indazol-5-yl)amino)-5-fluoronicotinamide], the IC50 is 65 to 130 nM in the assay with THP-1 cells (setting [5]) and < 10 nM in assay [1] (setting [4]).
As to `CC(C)Cn1ccc2c(Nc3nc(N[C@@H]4CCCC[C@@H]4N)c(F)cc3C(N)=O)ccnc21` [Example 004-036], the IC50 is 65 to 130 nM in the assay on THP-1 cells (setting [5]) and < 10 nM in assay [1] (setting [4]).
As for `NC(=O)c1cc(F)c(N[C@@H]2CCCC[C@@H]2N)nc1Nc1cncc2ccccc12` (single isomer, unassigned) [Example 9, 6-(cis-2-aminocyclohexylamino)-5-fluoro-2-(isoquinolin-4-ylamino)nicotinamide•hydrochloride], the IC50 in the assay with THP-1 cells (setting [2]) was ≤ 200 nM; in assay [1] (setting [3]), ≤ 1000 nM.
Regarding `COc1cccc(-c2cncc(Nc3nc(N[C@@H]4CCCC[C@@H]4N)c(F)cc3C(N)=O)c2)c1` (relative stereo) [Example 004-113, 6-(cis-2-aminocyclohexylamino)-5-fluoro-2-((5-(3-methoxyphenyl)pyridin-3-yl)amino)-nicotinamide], the IC50 is 130 to 200 nM with THP-1 cells (setting [5]) and < 10 nM in assay [1] (setting [4]).
The corresponding values for `CCCC[C@@H](Nc1nc(Nc2ccnc(OCCOC)c2)c(C(N)=O)cc1F)[C@H](C)N` [Example 006-407, 6-(((2S,3R)-2-aminoheptan-3-yl)amino)-5-fluoro-2-((2-(2-methoxyethoxy)pyridin-4-yl)amino)nicotinamide] are 130 to 200 nM and < 10 nM.
On to `CC(C)C[C@@H](Nc1nc(Nc2ccc3ncsc3c2)c(C(N)=O)cc1F)C(N)=O` [Example 012-005], for which the IC50 in the assay on THP-1 cells (setting [5]) fell in the range of 130 to 200 nM; in assay [1] (setting [4]) it was 10 to 50 nM.
`CC[C@H](N)[C@@H](CC)Nc1nc(Nc2ccc3c(cnn3C)c2)c(C(N)=O)cc1F` [Example 006-364, 6-(((3R,4S)-4-aminohexan-3-yl)amino)-5-fluoro-2-((1-methyl-1H-indazol-5-yl)amino)nicotinamide]: the values for the IC50 (with THP-1 cells (setting [5]); in assay [1] (setting [4])) were 65 to 130 nM and < 10 nM, respectively.
For the molecule `CCOc1ncc(Nc2nc(N[C@@H]3CCCC[C@@H]3N)c(F)cc2C(N)=O)cc1-n1ccnn1` [Example 006-496, 6-(((1R,2S)-2-aminocyclohexyl)amino)-2-((6-ethoxy-5-(1H-1,2,3-triazol-1-yl)pyridin-3-yl)amino)-5-fluoronicotinamide], the results for the IC50 (in the assay on THP-1 cells (setting [5]); in assay [1] (setting [4])) were 65 to 130 nM and < 10 nM, respectively.
`NC(=O)c1cc(F)c(N[C@@H]2CCCC[C@@H]2N)nc1Nc1cncc(-c2cnco2)c1` (relative stereo) [Example 004-118, 6-(cis-2-aminocyclohexylamino)-5-fluoro-2-((5-(oxazol-5-yl)pyridin-3-yl)amino)-nicotinamide]: the IC50 in the assay on THP-1 cells (setting [5]) was 65 to 130 nM; in assay [1] (setting [4]) it was < 10 nM.
As to `CCCC[C@H](CN)Nc1nc(Nc2ccc3c(cnn3CCF)c2)c(C(N)=O)cc1F` [Example 006-414, (R)-6-((1-aminohexan-2-yl)amino)-5-fluoro-2-((1-(2-fluoroethyl)-1H-indazol-5-yl)amino)nicotinamide], the IC50 was 65 to 130 nM in the assay on THP-1 cells (setting [5]) and < 10 nM in assay [1] (setting [4]).
